Series [1] deals with melanoma cell lines (UACC 903, 1205Lu). Put plainly: MTS assay, melanoma cell lines (cell line not given). It counts as cell-based, human. The note with it: UACC 903 and 1205 Lu. As for the experimental part: The mechanistic basis of leelamine's activity to inhibit melanoma cell growth is determined by examining the effect of leelamine on 1) cell viability using the MTS assay; 2) proliferation using a BrdU incorporation assay; 3) apoptosis using an assay for caspase-3/7 activity; and 4) cell cycle analysis. The MTS assay as described in Sharma, A. et al., Clin Cancer Res, 2009, 15:1674-85; and Madhunapantula, S. V. et al., Mol Cancer Ther, 2008, 7:1297-308 is used to assay cell viability. Rates of proliferation and apoptosis are measured by seeding 5×10^3 cells in 96-well plates, followed by treatment with 0.62 to 10 μmol/L of leelamine for 24 hours. Proliferating and apoptotic cells are quantified using a colorimetric cell proliferation ELISA BrdU kit (Roche diagnostics, Indianapolis, Ind.) or Apo-ONE Homogenous caspase-3/7 assay kit (Promega, Madison, Wis.), respectively, as described in Sharma, A. et al., Clin Cancer Res, 2009, 15:1674-85; and Madhunapantula, S. V. et al., Mol Cancer Ther, 2008, 7:1297-308.
Dehydroabietylamine, its N-substituted derivatives and the corresponding dihydroabietylamine and its N-substituted derivatives are tested for their capability to inhibit cell growth of cancer cell lines, including melanoma (UACC 903, 1205Lu), breast (MCF-7), fibrosarcoma (HT-1080), colon (Caco-2), and prostate (PC-3) cancer cell lines. Viability and IC50 of normal human fibroblasts and cell lines from melanoma and other malignancies following treatment with all the agents are measured using the MTS assay (Promega, Madison, Wis.). Human fibroblast FF2441 cells, metastatic melanoma cell lines 1205 Lu and UACC 903 as well as cancer cell lines representing sarcoma (HT-1080), prostate (PC-3, LNCaP), breast (MCF-7) and lung (A-549) are maintained in DMEM (Invitrogen, Carlsbad, Calif.) supplemented with 10% FBS (Hyclone, Logan, Utah) in a 5% CO2 atmosphere, humidified 37° C. incubator. 5×10^3 cells per well in 100 μL of media are plated and grown in a 96-well plate for 48 to 72 h and treated with either DMSO vehicle control or 0.62 to 40 μmol/L for 24, 48 or 72 h. IC50 values for each compound in […] for respective cell lines are measured from three independent experiments using GraphPad Prism version 4.01 (GraphPad Software, La Jolla, Calif.). FIG. 52 is a graph showing IC50 values for leelamine and compounds 4a, 4b and 5a in treated fibroblasts (FF2441) compared to melanoma cells. Selectivity ratio here is defined as ratio of activity against fibroblasts compared to activity against melanoma cells. Leelamine is relatively selective with a ratio of >6 and >4 for UACC903 and 1205Lu melanoma cells. The selectivity ratio of compound 4a is ˜4 and ˜3 for UACC903 and 1205Lu and for compound 4b is ˜4 for both cell lines. The selectivity ratio of compound 5a is ˜4 for UACC903 and >2 for 1205Lu cells.
For orientation: Tetrazolium assays rely on reduction of a dye to a coloured formazan, in cell work by metabolically active cells.

Series [2] relates to UACC 903 human melanoma cell tumors. In words: Melanoma xenograft tumor development, UACC 903. It counts as in vivo, mice. The protocol: The efficacy of leelamine for inhibiting melanoma tumor development is evaluated on preexisting tumors formed following subcutaneous injection of cancer cells into nude mice. Tumor kinetics are measured by subcutaneous injection of 1.0×10^6 UACC 903 or 1205 Lu cells in 0.2 mL of DMEM supplemented with 10% FBS subcutaneously injected above both left and right rib cages of 3- to 4-wk-old female athymic nude-Foxn1^nu mice (Harlan Laboratories, Indianapolis, Ind.). Six days later, when a fully vascularized tumor (50-75 mm^3) has formed, mice are randomly divided into DMSO vehicle control and experimental groups (5 mice/group; 2 tumors/mouse) and treated intraperitoneally with 2.5-7.5 mg/kg body weight leelamine daily for 3-4 weeks. Body weight (grams) and dimensions of the developing tumors (mm^3) are measured at the time of drug treatment as described in Sharma, A. et al., Clin Cancer Res, 2009, 15:1674-85; and Madhunapantula, S. V. et al., Mol Cancer Ther, 2008, 7:1297-308.
In this example, leelamine (40, 60, or 80 mg/kg body weight) is administered orally to 4-6 weeks old nude mice bearing UACC903 melanoma cell tumors (50-100 mm^3). Sizes of developing tumors are measured. […] Values±S.E.M. (n=5)
Tumor kinetics are measured by subcutaneous injection of 1.0×10^6 UACC 903 or 1205 Lu cells in 0.2 mL of DMEM supplemented with 10% FBS subcutaneously injected above both left and right rib cages of 3- to 4-wk-old female athymic nude-Foxn1^nu mice (Harlan Laboratories, Indianapolis, Ind.). Six days later, when a fully vascularized tumor (50-75 mm^3) has formed, mice are randomly divided into control and experimental groups (5 mice/group; 2 tumors/mouse) and treated with 30-mg/kg body weight of empty liposome vehicle, abietic acid liposomes or Nanolipolee-007 intravenously each day for 3-4 weeks. Body weight (grams) and dimensions of the developing tumors (mm^3) are measured at the time of drug treatment.

In series [3] the test system is GFP expressing UACC 903 melanoma cells in skin reconstructs. Put plainly: Topical treatment of melanoma tumors in skin reconstructs. It counts as cell-based, human. The note with it: topical 2.5, 5 and 10 uM for 8 days. The protocol:
In this example, the effect of leelamine on melanoma tumors developing in skin reconstructs is tested by topical application. Skin reconstructs are generated by mixing GFP expressing UACC 903 melanoma cells with human normal fibroblasts (FF2441) and keratinocytes (HFK) followed by growing in a 37° C. incubator for 7 days. Beginning from day 8, completely developed skins containing melanoma tumors are treated with increasing concentrations of Leelamine (2.5, 5 and 10 uM in 200 uL PBS) or PBS vehicle alone for an additional 8 more days. The sizes of developing tumors, in terms of area occupied by GFP are measured. […] Also shown in FIG. 22 are images of control and treated cells.

The source of these data is patent US9839618B2, “Compositions and methods relating to proliferative diseases” (The Penn State Research Foundation, priority 2010, dated 2017).

Take `CC(C)C1=CC2=CCC3[C@](C)(CCC[C@@]3(C)C(=O)O)C2CC1` (stereo partly drawn) [Abietic acid, (1R,4aR)-1,4a-dimethyl-7-(propan-2-yl)-1,2,3,4,4a,4b,5,6,10,10a-decahydrophenanthrene-1-carboxylic acid, reference compound]: the “anti-cancer activity / viability of melanoma cell lines, in words” value in series [1] was “no anti-cancer activity”.
In the case of `CC(C)c1ccc2c(c1)CCC1[C@](C)(CN)CCC[C@]21C` (stereo partly drawn) [Leelamine, [(1R,4aS)-1,4a-dimethyl-7-(propan-2-yl)-1,2,3,4,4a,9,10,10a-octahydrophenanthren-1-yl]methanamine], the “anti-cancer activity / viability of melanoma cell lines, in words” value in series [1] is on record as “effectively inhibits the viability”. Further, the “body weights of tumor bearing mice” value in series [2] (UACC 903 and 1205 Lu xenograft nude mice, i.p. 2.5-7.5 mg/kg daily) was “no significant differences”. Besides, the “reduction of tumor volume, UACC 903” value in series [2] (intraperitoneally 2.5-7.5 mg/kg daily for 3-4 weeks, compared to DMSO vehicle) was found to be 61%. In addition, the “reduction of tumor growth development, oral” value in series [2] (orally 40, 60 or 80 mg/kg, compared to DMSO control) is listed as approximately 45%. Also, the “melanoma tumor growth in skin reconstructs (GFP area)” value in series [3] is on record as “inhibits melanoma tumor growth”.
